Measurements taken from ChEMBL document CHEMBL4354881, “Optimization of Potent ATAD2 and CECR2 Bromodomain Inhibitors with an Atypical Binding Mode” (J Med Chem, 2020).

Assays:
[1] = molecular target: T1, ATPase family AAA domain-containing protein 2 (Homo sapiens, UniProt Q6PL18); experiment: Binding affinity to human partial length ATAD2A (Q981 to R1108 residues) expressed in bacterial expression system by BROMOscan assay
T1 sequence (Q6PL18 whole entry): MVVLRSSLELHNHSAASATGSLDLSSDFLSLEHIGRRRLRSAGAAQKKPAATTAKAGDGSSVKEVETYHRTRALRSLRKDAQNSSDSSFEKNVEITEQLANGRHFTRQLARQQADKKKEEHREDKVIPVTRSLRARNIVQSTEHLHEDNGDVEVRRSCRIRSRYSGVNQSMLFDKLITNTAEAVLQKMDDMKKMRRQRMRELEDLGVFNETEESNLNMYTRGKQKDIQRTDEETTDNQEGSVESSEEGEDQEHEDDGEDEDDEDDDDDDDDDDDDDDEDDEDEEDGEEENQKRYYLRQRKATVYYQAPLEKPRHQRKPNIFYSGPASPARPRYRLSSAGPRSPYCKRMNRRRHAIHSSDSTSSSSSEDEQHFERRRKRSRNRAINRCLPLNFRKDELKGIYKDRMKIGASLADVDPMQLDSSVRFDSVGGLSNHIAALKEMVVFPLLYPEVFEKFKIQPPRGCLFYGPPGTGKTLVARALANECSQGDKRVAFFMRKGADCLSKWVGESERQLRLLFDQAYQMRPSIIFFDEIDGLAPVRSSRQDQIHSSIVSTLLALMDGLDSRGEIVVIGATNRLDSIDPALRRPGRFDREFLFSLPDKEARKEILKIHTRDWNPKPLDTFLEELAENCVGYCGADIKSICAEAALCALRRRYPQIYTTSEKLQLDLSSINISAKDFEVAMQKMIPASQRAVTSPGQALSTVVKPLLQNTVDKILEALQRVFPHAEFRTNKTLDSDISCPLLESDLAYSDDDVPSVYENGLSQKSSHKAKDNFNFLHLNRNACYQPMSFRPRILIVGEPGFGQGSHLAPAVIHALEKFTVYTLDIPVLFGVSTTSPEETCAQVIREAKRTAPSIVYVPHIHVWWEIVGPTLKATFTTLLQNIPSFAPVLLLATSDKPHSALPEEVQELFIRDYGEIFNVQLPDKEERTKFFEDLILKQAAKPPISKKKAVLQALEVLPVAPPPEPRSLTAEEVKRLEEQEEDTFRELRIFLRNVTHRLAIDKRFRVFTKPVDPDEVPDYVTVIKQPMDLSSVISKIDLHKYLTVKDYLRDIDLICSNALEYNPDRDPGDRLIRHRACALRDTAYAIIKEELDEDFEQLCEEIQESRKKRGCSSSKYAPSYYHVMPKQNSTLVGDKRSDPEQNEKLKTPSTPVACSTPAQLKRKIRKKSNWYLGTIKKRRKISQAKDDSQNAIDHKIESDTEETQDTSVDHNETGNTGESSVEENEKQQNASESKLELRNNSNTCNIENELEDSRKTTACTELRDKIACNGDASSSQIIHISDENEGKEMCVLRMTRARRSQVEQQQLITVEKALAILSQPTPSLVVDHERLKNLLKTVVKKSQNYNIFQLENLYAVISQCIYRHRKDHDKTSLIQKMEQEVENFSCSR

[2] = molecular target: T2, ATPase family AAA domain-containing protein 2B (Homo sapiens, UniProt Q9ULI0); experiment: Binding affinity to human partial length ATAD2B (Q955 to R1082 residues) expressed in bacterial expression system by BROMOscan assay
T2 sequence (Q9ULI0 whole entry): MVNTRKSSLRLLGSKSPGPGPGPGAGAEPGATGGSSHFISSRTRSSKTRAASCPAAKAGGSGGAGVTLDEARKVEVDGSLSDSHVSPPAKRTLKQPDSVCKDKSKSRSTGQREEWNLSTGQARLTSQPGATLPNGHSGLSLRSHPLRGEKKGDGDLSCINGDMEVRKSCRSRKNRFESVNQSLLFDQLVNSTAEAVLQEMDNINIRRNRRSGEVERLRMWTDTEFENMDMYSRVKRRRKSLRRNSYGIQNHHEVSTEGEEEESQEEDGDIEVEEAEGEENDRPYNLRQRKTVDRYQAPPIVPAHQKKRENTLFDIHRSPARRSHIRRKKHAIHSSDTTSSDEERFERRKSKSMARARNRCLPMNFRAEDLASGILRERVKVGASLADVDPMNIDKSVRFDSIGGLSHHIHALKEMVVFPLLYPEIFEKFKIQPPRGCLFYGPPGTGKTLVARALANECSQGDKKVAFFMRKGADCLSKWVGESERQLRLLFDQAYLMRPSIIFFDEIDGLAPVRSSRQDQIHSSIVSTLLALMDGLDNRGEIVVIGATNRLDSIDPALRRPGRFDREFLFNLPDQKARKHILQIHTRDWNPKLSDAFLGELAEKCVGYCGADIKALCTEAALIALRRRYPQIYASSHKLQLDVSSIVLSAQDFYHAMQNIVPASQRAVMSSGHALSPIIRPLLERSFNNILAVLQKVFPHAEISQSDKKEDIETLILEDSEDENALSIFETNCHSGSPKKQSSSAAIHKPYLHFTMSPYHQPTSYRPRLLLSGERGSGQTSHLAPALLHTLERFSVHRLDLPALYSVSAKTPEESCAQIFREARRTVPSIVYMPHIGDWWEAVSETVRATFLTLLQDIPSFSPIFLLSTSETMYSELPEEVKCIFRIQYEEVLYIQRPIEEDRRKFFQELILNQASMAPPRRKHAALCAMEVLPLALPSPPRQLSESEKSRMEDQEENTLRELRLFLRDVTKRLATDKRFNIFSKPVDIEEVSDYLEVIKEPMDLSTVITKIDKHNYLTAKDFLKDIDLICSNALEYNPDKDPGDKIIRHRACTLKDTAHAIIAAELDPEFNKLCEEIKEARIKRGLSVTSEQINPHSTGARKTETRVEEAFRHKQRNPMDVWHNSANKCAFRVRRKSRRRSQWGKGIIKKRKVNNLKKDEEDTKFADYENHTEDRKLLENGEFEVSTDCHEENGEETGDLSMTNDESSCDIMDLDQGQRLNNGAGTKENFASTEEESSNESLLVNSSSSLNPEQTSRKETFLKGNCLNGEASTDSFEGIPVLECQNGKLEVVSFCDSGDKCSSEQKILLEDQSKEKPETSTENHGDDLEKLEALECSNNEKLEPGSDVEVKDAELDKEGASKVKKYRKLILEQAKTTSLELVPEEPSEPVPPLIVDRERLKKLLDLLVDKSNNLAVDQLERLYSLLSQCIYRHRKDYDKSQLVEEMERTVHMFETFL

Kd [1]: 10 nM
Kd [2]: 20 nM
Structure (SMILES): C[C@H]1CCN(S(=O)(=O)c2cc(NC(=O)CN3C(=O)N[C@@](C)(C4CC4)C3=O)ccc2Br)C1
